Data: article PMC6405172, “In vitro activity and mode of action of phenolic compounds on Leishmania donovani” (PLoS Neglected Tropical Diseases, 2019)
Like-named read-outs stand apart in the source and are kept apart here.

Key:
[1] = tested on: Leishmania donovani promastigotes; experiment: Iron content analysis by atomic absorption spectroscopy; format: cell-based; settings: 24 hours; 4x IC50 (amphotericin B IC50)
Method: The parasites were then washed twice with 1x PBS and resuspended in 50 μl deionized water. An aliquot (10 μl) of the parasite suspension was used for protein content determination as described by. The remaining parasite sample (40 μl) was digested with HNO3 for 1 hour at 80°C and overnight at 20°C. Cell digestions were stopped by the addition of 30% H2O2 and topped up to 1.5 ml with deionized water. Iron content in digested samples, spent and unused media were measured by atomic absorption spectroscopy using a Perkin Elmer Analyst 300 spectrometer.

[2] = tested on: L. donovani promastigotes; experiment: Morphology analysis (DAPI, microscopy); format: cell-based, Leishmania donovani; settings: 24 hours; for parasites with rounded morphology, aggregated kinetoplast and nuclear DNA: 2x IC50
Method: The cell pellets were then washed twice and resuspended in 1x PBS. The cells were then allowed to settle on poly-L-lysine coated slides and then rinsed with 1x PBS. Tris-HCl (100 mM) pH 7.5 in 1x PBS was used to block the PFA for 10 minutes. DAPI stain (0.1μg/mL) was added followed by one wash in 1x PBS. Coverslips were mounted onto the slides using Vectashield mounting media and observed under the Olympus fluorescent microscope to detect any phenotypic changes in L. donovani promastigotes. The total number of parasites was determined by direct counting of parasites per field, using ImageJ Software. The frequency of parasites was visually determined by counting parasites that had any abnormalities in their structure compared to the untreated control.

[3] = tested on: L. donovani promastigotes; experiment: Promastigote mitochondria integrity (MitoTracker Red CMXROS); format: cell-based, Leishmania donovani; settings: 24 hours; 2x IC50 (amphotericin B 1/2 IC50)
Method: After incubation, the promastigotes were harvested and resuspended in serum-free M199/1%BSA. MitoTracker Red CMXROS (a cationic fluorescent dye that labels the mitochondria within live cells) at 100 nM was added and incubated for 30 min. Parasites were washed once with serum-free M199/1% BSA, pelleted by centrifugation at 1500 rpm for 10 min, resuspended in 1x vPBS and 6% paraformaldehyde and incubated at 4°C for 1 hour. The promastigote pellets were washed twice and resuspended in 1xPBS. The parasites were then allowed to settle on poly-L-lysine coated slides and DAPI stain (0.1μg/mL) was added followed by one wash in 1x PBS. Coverslips were mounted onto the slides using Vectashield mounting media and observed under the Olympus fluorescent microscope to detect any abnormalities in the structure of the mitochondria. The total number of parasites was determined by direct counting of parasites per field, using ImageJ Software. Parasites with distorted mitochondria were visually determined by counting parasites that had any abnormalities in the structure of the mitochondria compared to the untreated control.

[4] = tested on: Leishmania donovani intracellular amastigotes; experiment: Intracellular amastigote assay in infected RAW 264.7 cells; format: cell-based; settings: for Selectivity Index (CC50/IC50), amastigotes: CC50 Raw 264.7 / IC50 intracellular amastigotes; for IC50: intracellular amastigotes in RAW 264.7 cells, 48 hours, read-out: Amastigotes IC50 (μM) ± SD
Method: Amastigote cultures were prepared as reported by Jain and colleagues. Briefly, Raw 264.7 cells (4 x 10^7 cells) were seeded in 4 chamber slides and 1 x 10^7 cells in 96 well plates and incubated for 24 hours at 37°C in 5% CO2. The RAW 264.7 cells were infected with metacyclic promastigotes (1 x 10^8 cells) at an infection ratio of 1:10 macrophage: parasites and incubated for 24 hours at 37°C in 5% CO2. The overlying medium was removed, and the monolayer intracellular amastigotes were carefully washed four times with serum free M199 to remove free parasites. Freshly prepared M199 containing 10% FBS and the test compounds at concentrations ranging from 0–50 μg/mL were added to the infected cells and incubated for 48 hours at 37°C in 5% CO2. Triplicate incubations were performed in all the experiments. The chamber slides were washed thrice after incubation with M199 without FBS. The slides were then fixed in absolute methanol for 30 sec, rehydrated in 1x PBS for 5 min and stained with DAPI for 15 min. The slides were viewed by fluorescence microscopy and the number of infected macrophages counted using ImageJ Software to determine the infectivity index and IC50 values for amastigotes.
The infected RAW 264.7 cells in the 96 wells microtiter plates were also incubated for 48 hours and washed thrice as above. Sodium dodecyl sulfate (SDS) of concentration 0.05% was added to the wells for 30 sec for controlled lysis with M199 and 10% FBS. After the 30 sec, M199 with 10% FBS was added and the plates incubated at 25°C for 72 hours for the differentiation of the rescued amastigotes to promastigotes. Following incubation, the amastigotes were subjected to MTT assay and the absorbance obtained were used to estimate IC50 values of the compounds against the amastigote forms.

[5] = tested on: Leishmania iron transporter 1 (LIT1); experiment: RT-qPCR mRNA expression of LIT1; format: cell-based, Leishmania donovani; settings: promastigotes, 24 hours; for LIT1 Relative quantity: Fig 7A
Method: (§1) Promastigotes (1 x 10^7 cells) were separately treated with rosmarinic acid, apigenin, amphotericin B and deferoxamine, harvested after 24 hours incubation at 25°C. The parasites were then pelleted by centrifugation at 239 × g for 10 min and the pellet was re-suspended in 1 mL TRIzol. Samples were incubated overnight at -80°C and total RNA was extracted as described by the manufacturer’s protocol using Quick-RNA MiniPrep Plus (Zymo Research, USA). Purity of total RNA was determined to be approximately 2.0 using a Nanodrop. The oligonucleotide primers for the amplification of the iron dependent enzymes—ribonucleotide reductase (RNR) (3’[…] and 5’CAACAACTTCTGCGCATCG), iron superoxide dismutase A (FeSOD) (3’[…] and 5’[…]) and Leishmania iron transporter 1 (LIT1) (3’[…] and 5’ […]) were designed using sequences of Leishmania reference genome from tritrypdb.org (http://tritrypdb.org/tritrypdb/) and Primer 3 software. The oligonucleotide primers used in amplifying the housekeeping gene Histone 2A were (3’ […] and 5’[…]). The RT-qPCR reaction was conducted as described by manufacturer’s protocol with final concentrations of oligonucleotide primers as 0.4 μM, 1x Luna Universal One-Step Reaction mix, 1x Luna WarmStart RT Enzyme Mix and template RNA ≤ 1 μg. All the RT-PCR products were standardized with respect to the endogenous control, Histone 2A. The levels of the mRNA transcripts were obtained using the QuantStudio 5 Real-Time PCR System (Applied Biosystems). The data represent three independent experiments done in triplicate and a fold change in gene expression of >2 was considered significant.

[6] = tested on: Leishmania donovani promastigotes; experiment: Parasite growth analysis (trypan blue counting); format: cell-based; settings: IC50 concentrations; for decrease in the number of promastigotes: at 48 hours
Method: The dose dependent inhibition of phenolic compounds on promastigotes was determined by culturing promastigotes (2 x 10^5 cells) in freshly prepared M199 medium in the presence and absence of varying concentration of the test compounds, apigenin (IC50, 2x IC50, 4x IC50), rosmarinic acid (IC50, 2x IC50, 4x IC50), amphotericin B (1/2 IC50, IC50) and deferoxamine (IC50, 2x IC50, 4x IC50), for 120 hours. The number of parasites was determined by staining with trypan blue every 24 hours. Quantification of the viable parasites was determined by counting the parasites with the clear cytoplasm (non-stained) using a Neubauer hemocytometer with a cover slip. Three independent experiments were performed, and data expressed as mean ± standard deviation.

[7] = tested on: iron superoxide dismutase A (FeSOD); experiment: RT-qPCR mRNA expression of FeSOD; format: cell-based, Leishmania donovani; settings: promastigotes, 24 hours; for FeSOD Relative quantity: Fig 7B
Method: as §1

Row | SMILES | concentration of iron in the spent media [1] [mg/L] | intracellular iron levels in promastigotes [1] [mg/L] | parasites showing irregular shape, severe distortion in the cell membrane, loss of kinetoplast DNA ([2]; half the IC50) [%] | promastigotes with mitotracker dye accumulating in the cytoplasm (distorted mitochondrion) [3] [%] | Selectivity Index (CC50/IC50), amastigotes [4] | IC50 ([4]; Leishmania donovani, RAW264.7, 48 h) [µM] | IC50 [4] [µM] | LIT1 mRNA expression versus untreated [5] | LIT1 Relative quantity [5] | reduction in the number of parasites ([6]; at 24 hours) [%] | FeSOD mRNA expression versus untreated [7] | FeSOD Relative quantity [7] | IC50 ([4]; Leishmania donovani, RAW264.7) [µM] | decrease in the number of promastigotes [6] [%] | parasites with rounded morphology, aggregated kinetoplast and nuclear DNA [2] [%]
1 | C[C@@H]1[C@H](O)[C@@H](C)/C=C/C=C/C=C/C=C/C=C/C=C/C=C/[C@H](O[C@@H]2O[C@H](C)[C@@H](O)[C@H](N)[C@@H]2O)C[C@@H]2O[C@](O)(C[C@@H](O)C[C@@H](O)[C@H](O)CC[C@@H](O)C[C@@H](O)CC(=O)O[C@H]1C)C[C@H](O)[C@H]2C(=O)O [Amphotericin B, reference compound] | 0.07 | 0.15 | 90 | 99 | 2.40 | 6.491 ± 0.03 | 6.49 ± 0.03 | 5 fold | 4.7 | 90 | did not significantly change | 0.7 | – | – | –
2 | O=c1cc(-c2ccc(O)cc2)oc2cc(O)cc(O)c12 [Apigenin, apigenin] | 0.11 | 0.1 | – | 75.8 | 5.21 | – | – | no observed change | 0.8 | – | did not significantly change | 0.7 | 45.66 ± 0.01 | 50 | –
3 | CC(=O)N(O)CCCCCNC(=O)CCC(=O)N(O)CCCCCNC(=O)CCC(=O)N(O)CCCCCN [Deferoxamine, deferoxamine, reference compound] | 0.08 | 0.36 | – | 81 | 0.73 | – | – | 125 fold | 125 | – | 5 fold | 5.0 | 36.74 ± 0.01 | 50 | 90
4 | O=C(/C=C/c1ccc(O)c(O)c1)O[C@H](Cc1ccc(O)c(O)c1)C(=O)O [Rosmarinic acid, rosmarinic acid] | 0.09 | 0.30 | – | 70 | 12.70 | – | – | 3 fold | 3.0 | – | did not significantly change | 1.3 | 19.21 ± 0.01 | 50 | 70
